Among the data in patent US7786097B2, “Tricyclic compounds, compositions and methods” (Pfizer Inc., priority 2007, dated 2010) are inhibition values, retold here.

The test system of experiment [1] is IL-1β production in human whole blood. Briefly: Ex vivo LPS-stimulated human whole blood, IL-1β. The format is cell-based. The following applies: LPS 100 ng/ml, 22 hours, one donor. The procedure: (§1) Venous blood from human donors was collected as 10 ml aliquots in tubes containing sodium heparin (BD Vacutainer from Becton Dickinson and Company, Franklin Lakes, N.Y.). Blood was added to sterile polystyrene round bottom 96-well tissue culture plates (Corning Costar) at 100 μl/well, omitting the outside wells. Media (RPMI Medium 1640 with L-glutamine, Invitrogen Corporation, Carlsbad, Calif.) was added to the blood in 90 μl aliquots for a total volume of 190 μl. Outside wells were filled with 200 μl of media. Blood was placed in a humidified 37° C. incubator with 5% CO2 while compounds were prepared (nearly 60 minutes).
(§2) Compounds were prepared from 10 mM stock solutions in dimethylsulfoxide (DMSO, Sigma-Aldrich). […] Final DMSO and ethanol concentrations in the assay were 0.1% and 1.5%. The samples were gently triturated twice to mix and replaced in the incubator. LPS stock (E. coli serotype 0111:B4, Sigma-Aldrich), stored in aliquots of 100 μg/ml in RPMI at −20° C., was diluted 1/50 in RPMI to make a working stock solution. After 60 minutes of incubation, 10 μl of the prepared LPS working stock was added to the blood to a final concentration of 100 ng/ml, omitting wells to be used as negative control. The samples were again gently triturated and the plates incubated overnight for 22 hours. Following incubation, the blood was centrifuged at 1500×g for 5 minutes and the plasma removed to either freeze at −20° C. or assay for cytokine release.
(§3) IL-1β, IFNγ, IL-6, and TNFα protein levels were measured using Meso Scale assay kits (Meso Scale Discovery, Gaithersburg, Md.). Reagents were allowed to come to room temperature. Meso Scale plates were blocked with 30 μl of human plasma/serum assay diluent with gentle shaking for 60 minutes at room temperature. Plates were washed 3× with wash buffer (PBS, Invitrogen Corporation, with 0.05% Tween-20, Sigma-Aldrich). Calibrators for standard curves were prepared in human plasma/serum assay diluent as a […] serial dilution to achieve final concentrations ranging from 50000 pg/ml to 3.2 pg/ml. Samples and calibrators were added at 20 μl/well, then incubated at room temperature with gentle shaking for 90 minutes. Plates were again washed 3 times with wash buffer. Detection antibody was diluted in human plasma/serum antibody diluent to 1 μg/ml and added to the plate at 20 μl/well. Plates were incubated as before for 60 minutes and washed again. Read Buffer T<4×) was diluted 1:1 with mqH2O to 2 times concentration and 150 μl added to each well. Plates were analyzed on the SECTOR Imager 6000 (Meso Scale Discovery) to generate raw signal values.
(§4) IL-1β, IFN-γ, IL-6, and TNFα sample values were verified to be within the calibrator standard curves. Individual values were compared to positive and negative controls (vehicle treated blood with LPS and vehicle treated blood without LPS, respectively) to generate % inhibition. Triplicate values were averaged for each donor. The values for two donors were averaged (only one donor was used for IL-1β) and graphed using 4-parameter fit curves in the GraFit 5.0.11 application.

Experiment [2] concerns IFNγ production in human whole blood. As to the kind of experiment: Ex vivo LPS-stimulated human whole blood, IFNγ. The format is cell-based. To be noted: LPS 100 ng/ml, 22 hours, mean of two donors. The procedure: as §1, §2, §3, §4

For the compound `C[C@]12C=CC(=O)C=C1CC[C@@H]1[C@@H]2[C@@H](O)C[C@@]2(C)[C@H]1CC[C@]2(O)C(=O)CO` [Prednisolone], the inhibition at 0.000457247 µM in experiment [1] (0.457247 nM) is 9.65%; in experiment [2] (0.457247 nM) it was 4.93%. For the same compound, the inhibition at 0.00137174 µM in experiment [1] (1.371742 nM) is 15.1%; in experiment [2] (1.371742 nM), 10.9%. Further, the inhibition at 0.00411523 µM was found to be 21% in experiment [1] (4.115226 nM) and 5.16% in experiment [2] (4.115226 nM). For the same compound, the values for the inhibition at 0.0123457 µM in experiment [1] (12.34568 nM) and in experiment [2] (12.34568 nM) were 33.6% and 25.7%, respectively. In addition, the inhibition at 0.037037 µM in experiment [1] (37.03704 nM) was 37.7%; in experiment [2] (37.03704 nM), 63.5%. For the same compound, the inhibition at 0.111111 µM in experiment [1] (111.1111 nM) came out at 73.2%; in experiment [2] (111.1111 nM), 95%. Also, the inhibition at 0.333333 µM in experiment [1] (333.3333 nM) was 92.9%; in experiment [2] (333.3333 nM) it was 99.8%. Also, the results for the inhibition at 1 µM in experiment [1] (1000 nM) and in experiment [2] (1000 nM) were 94.9% and 100%, respectively.

By inhibition is commonly meant the change of the read-out against control, counted positive when it falls. Read a high inhibition as a strong effect.
